From PubChem BioAssay AID200 (DTP/NCI, 2004) come the findings set out here.

Several values for one entry are separate records, joined by “and”; a condition that tells them apart may be missing. Equal values may be shown once. Inconclusive results and toxic doses are left out. Where a SMILES comes first, the peptide text is derived from it.

The test system of this assay is B6C3F1 mice, B16 melanoma ip, median survival T/C. The assay can be described thus: NCI In Vivo Anticancer Drug Screen. Data for tumor model B16 Melanoma (intraperitoneal) in B6C3F1 mice. The note with it: endpoint: median survival time, higher = longer survival. The method, boiled down:
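Values are T/C ratios: the measurement in treated animals divided by that in vehicle-treated controls, using survival or tumor size in mice carrying transplantable tumors.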

The mark [1] stands for this setting: dose: 12.5 mg/kg/injection, schedule: Q01DX009 (ip), vehicle: saline with Tween-80.
Setting [2] is: dose: 100.0 mg/kg/injection, schedule: Q01DX009 (ip), vehicle: saline.

For `O=C(Nc1ccccc1)c1c(O)[nH]c(=S)[nH]c1=O`, the T/C by setting is: (dose: 6.0 mg/kg/injection, schedule: Q01DX009 (ip), vehicle: saline with Tween-80) 108 % of control; under setting [1], 114 % of control and 115 % of control; (dose: 44.0 mg/kg/injection, schedule: Q01DX009 (ip), vehicle: saline with Tween-80) 153 % of control; (dose: 56.0 mg/kg/injection, schedule: Q01DX009 (oral), vehicle: saline with Tween-80) 111 % of control; (dose: 67.0 mg/kg/injection, schedule: Q01DX009 (ip), vehicle: saline with Tween-80) 161 % of control; (dose: 83.0 mg/kg/injection, schedule: Q01DX009 (oral), vehicle: saline with Tween-80) 117 % of control. For the same compound, the T/C by setting is: (dose: 100.0 mg/kg/injection, schedule: Q01DX005 (oral), vehicle: saline with Tween-80) 110 % of control; (dose: 124.0 mg/kg/injection, schedule: Q01DX009 (oral), vehicle: saline with Tween-80) 114 % of control; (dose: 149.0 mg/kg/injection, schedule: Q01DX005 (oral), vehicle: saline with Tween-80) 118 % of control; (dose: 185.0 mg/kg/injection, schedule: Q01DX009 (oral), vehicle: saline with Tween-80) 121 % of control; (dose: 223.0 mg/kg/injection, schedule: Q01DX005 (oral), vehicle: saline with Tween-80) 114 % of control; (dose: 333.0 mg/kg/injection, schedule: Q01DX005 (oral), vehicle: saline with Tween-80) 116 % of control.

On to `CSC(SC)=C1C(=O)NC(=O)NC1=O`, for which the T/C was 111 % of control (dose: 3.12 mg/kg/injection, schedule: Q01DX009 (ip), vehicle: saline); 101 % of control (dose: 6.25 mg/kg/injection, schedule: Q01DX009 (ip), vehicle: saline); 90 % of control (dose: 12.5 mg/kg/injection, schedule: Q01DX009 (ip), vehicle: saline); 96 % of control (dose: 25.0 mg/kg/injection, schedule: Q01DX009 (ip), vehicle: saline).

Consider `COc1cc2c(c(OC)c1O)-c1ccc(OC)c(=O)cc1[C@@H](NC(=O)C(F)(F)F)CC2`, for which the T/C runs as follows: (dose: 0.62 mg/kg/injection, schedule: Q01DX009 (ip), vehicle: Klucel (hydroxypropylcellulose) (HPC)) 119 % of control; (dose: 0.63 mg/kg/injection, schedule: Q01DX009 (ip), vehicle: Klucel (hydroxypropylcellulose) (HPC)) 122 % of control; (dose: 1.25 mg/kg/injection, schedule: Q01DX009 (ip), vehicle: Klucel (hydroxypropylcellulose) (HPC)) 118 % of control; (dose: 2.5 mg/kg/injection, schedule: Q01DX009 (ip), vehicle: Klucel (hydroxypropylcellulose) (HPC)) 120 % of control; (dose: 4.17 mg/kg/injection, schedule: Q01DX009 (ip), vehicle: Klucel (hydroxypropylcellulose) (HPC)) 156 % of control.

Consider `CCC(N)C(=O)NCC(=O)NCC(=O)O` (stereo not given) (HELM PEPTIDE1{[CCC(N)C(=O)[*:2]].G.G}$$$$V2.0), for which the T/C was 105 % of control under setting [2]; 108 % of control (dose: 200.0 mg/kg/injection, schedule: Q01DX009 (ip), vehicle: saline); 109 % of control (dose: 400.0 mg/kg/injection, schedule: Q01DX009 (ip), vehicle: saline).

With `O=NNc1ccc(Cl)cn1`, the T/C is 118 % of control (dose: 1.56 mg/kg/injection, schedule: Q01DX009 (ip), vehicle: water); 107 % of control (dose: 3.13 mg/kg/injection, schedule: Q01DX009 (ip), vehicle: water); 115 % of control (dose: 6.25 mg/kg/injection, schedule: Q01DX009 (ip), vehicle: water); 166 % of control and 168 % of control (dose: 12.5 mg/kg/injection, schedule: Q01DX009 (ip), vehicle: water).

`Cc1cc2nc3c(=O)[nH]c(=O)nc-3n(CC(O)C(O)C(O)C(O)CO)c2cc1C` (stereo not given): the T/C (dose: 25.0 mg/kg/injection, schedule: Q01DX009 (ip), vehicle: suspension in saline) is 104 % of control; the T/C (dose: 50.0 mg/kg/injection, schedule: Q01DX009 (ip), vehicle: suspension in saline) was 111 % of control; the T/C (dose: 100.0 mg/kg/injection, schedule: Q01DX009 (ip), vehicle: suspension in saline) was 102 % of control; the T/C (dose: 200.0 mg/kg/injection, schedule: Q01DX009 (ip), vehicle: suspension in saline) was 93 % of control.

Consider `O=C1C=C(N2CC2)C(=O)C(N2CC2)=C1N1CC1`, for which the T/C was 111 % of control (dose: 6.25 micrograms/kg/injection, schedule: Q01DX009 (ip), vehicle: saline); 95 % of control (dose: 12.5 micrograms/kg/injection, schedule: Q01DX009 (ip), vehicle: saline); 113 % of control (dose: 25.0 micrograms/kg/injection, schedule: Q01DX009 (ip), vehicle: saline); 165 % of control (dose: 50.0 micrograms/kg/injection, schedule: Q01DX009 (ip), vehicle: saline); 157 % of control (dose: 100.0 micrograms/kg/injection, schedule: Q01DX009 (ip), vehicle: saline).

As to `C=C(OC)C(Nc1cc(OC)c(OC)cc1C(=O)OC1CC(O[C@@H]2C(=O)C(NC(=O)OC)=C3/C(=C\CSSSC)[C@]2(O)C#C/C=C\C#C[C@@H]3OC2OC(C)C(NOC3CC(O)C(SC)C(C)O3)C(O)C2OC2CC(OC)C(NCCC)CO2)OC(C)C1O)OC` (stereo not given in full), the T/C runs as follows: (dose: 0.16 micrograms/kg/injection, schedule: Q01DX009 (ip), vehicle: saline + alcohol) 191 % of control; (dose: 0.32 micrograms/kg/injection, schedule: Q01DX009 (ip), vehicle: saline + alcohol) 162 % of control; (dose: 0.63 micrograms/kg/injection, schedule: Q01DX009 (ip), vehicle: saline + alcohol) 170 % of control; (dose: 2.5 nanograms/kg/injection, schedule: Q01DX009 (ip), vehicle: saline + alcohol) 119 % of control; (dose: 4.0 nanograms/kg/injection, schedule: Q01DX009 (ip), vehicle: saline + alcohol) 93 % of control; (dose: 5.0 nanograms/kg/injection, schedule: Q01DX009 (ip), vehicle: saline + alcohol) 109 % of control. The T/C (dose: 14.0 nanograms/kg/injection, schedule: Q01DX009 (ip), vehicle: saline + alcohol) was 102 % of control; the T/C (dose: 20.0 nanograms/kg/injection, schedule: Q01DX009 (ip), vehicle: saline + alcohol) was 155 % of control; the T/C (dose: 24.0 nanograms/kg/injection, schedule: Q01DX009 (ip), vehicle: saline + alcohol) was 103 % of control; the T/C (dose: 40.0 nanograms/kg/injection, schedule: Q01DX009 (ip), vehicle: saline + alcohol) was 219 % of control and 101 % of control; the T/C (dose: 66.67 nanograms/kg/injection, schedule: Q01DX009 (ip), vehicle: saline + alcohol) was 96 % of control; the T/C (dose: 111.11 nanograms/kg/injection, schedule: Q01DX009 (ip), vehicle: saline + alcohol) is 97 % of control.

In the case of `O=C(O)C1Cc2nc[nH]c2CN1CO` (stereo not given), the T/C under setting [1] was 104 % of control; the T/C (dose: 25.0 mg/kg/injection, schedule: Q01DX009 (ip), vehicle: saline with Tween-80) was 102 % of control; the T/C (dose: 50.0 mg/kg/injection, schedule: Q01DX009 (ip), vehicle: saline with Tween-80) was 105 % of control; the T/C (dose: 100.0 mg/kg/injection, schedule: Q01DX009 (ip), vehicle: saline with Tween-80) was 109 % of control; the T/C (dose: 200.0 mg/kg/injection, schedule: Q01DX009 (ip), vehicle: saline with Tween-80) is 106 % of control; the T/C (dose: 400.0 mg/kg/injection, schedule: Q01DX009 (ip), vehicle: saline with Tween-80) was 104 % of control.

For the compound `C/C=C/C=C/c1cc2cc3c(c(O)c2c(=O)[nH]1)C1(CC3)C(O)=c2c(=O)c3c(=O)cc(OC)c(=O)c=3c(=O)c2=C1O` (stereo not given), the T/C is, setting by setting: (dose: 0.75 mg/kg/injection, schedule: Q01DX009 (ip), vehicle: Klucel (hydroxypropylcellulose) (HPC)) 114 % of control and 117 % of control; (dose: 1.5 mg/kg/injection, schedule: Q01DX009 (ip), vehicle: Klucel (hydroxypropylcellulose) (HPC)) 114 % of control and 107 % of control; (dose: 3.0 mg/kg/injection, schedule: Q01DX009 (ip), vehicle: Klucel (hydroxypropylcellulose) (HPC)) 116 % of control; (dose: 6.0 mg/kg/injection, schedule: Q01DX009 (ip), vehicle: Klucel (hydroxypropylcellulose) (HPC)) 115 % of control; (dose: 12.0 mg/kg/injection, schedule: Q01DX009 (ip), vehicle: Klucel (hydroxypropylcellulose) (HPC)) 115 % of control.

Take `Nc1ncc(C2OC(CO)C(O)C2O)c(=O)[nH]1` (stereo not given): the T/C (dose: 50.0 mg/kg/injection, schedule: Q01DX009 (ip), vehicle: saline) is 150 % of control and the T/C under setting [2] was 154 % of control.

With `CC(NC(=O)C(Cc1cnc[nH]1)NC(=O)OCc1ccccc1)C(=O)O` (stereo not given), the T/C by setting is: (dose: 100.0 mg/kg/injection, schedule: Q01DX009 (ip), vehicle: Klucel (hydroxypropylcellulose) (HPC)) 98 % of control; (dose: 200.0 mg/kg/injection, schedule: Q01DX009 (ip), vehicle: Klucel (hydroxypropylcellulose) (HPC)) 104 % of control; (dose: 400.0 mg/kg/injection, schedule: Q01DX009 (ip), vehicle: Klucel (hydroxypropylcellulose) (HPC)) 98 % of control.
